Measured values: US6479555B1, “Method for inducing hepatic fibrosis by repeated administration of allylalcohol” (priority 2000, dated 2002)

Legend:
[1] = test system: Spraque-Dawley male white mice; test: Quantification of hepatic fibrosis by the numerical scoring system; format: in vivo, white mouse
Text: In order to include width of fibrosis septa and fibrosis development in sinusoid as well as that between the portals, these inventors had quantified the extent of the fibrosis using the numerical scoring system reported by Castilla-Cortaza(1997) and Oberti (1997).
To systemically analyze the result of the numerical scoring system, these inventors also used the Image precessing and analysis system program (Leica Q500 MC, Leica Cambridge Ltd, Cambridge, U. K., 1994).
The length of septa was classified as score “4” when the septa showing fibrosis from one portal to the other is one whole length, score “3” for up to ⅔, score “2” for up to ⅓, and score “1” for less than ⅓. For the width of septa, the score from 2-6 was given for the mean of widths of three different periportal septa, centriperiveinal septa and perinodal septa at four different sites.
The number for the width of septa was determined by measuring the fibrotic region of blood vessel in one node that score “4” when the whole node was filled with the fibrotic strand and a large number of the septa made the micronode, score “3” when the fibrosis region occupied up to ⅔ of the whole node area, score “2” up to ⅓, and score “1” when the fibrosis strand was little in the node.
(§1) The present inventors used total of 30 Spraque-Dawley male white mice, injected 0.62 mmole/kg allylalcohol into the peritoneal cavity twice a week, and sacrificed ten mice each time after 4 weeks, 8 weeks, and 16 weeks.
(§2) The liver tissues of 30 mice obtained from the Example <1-2> were fixed in 10% formalin solution, stained with Masson's trichrome, and observed for the determination of fibrosis under light microscope.

[2] = test system: Spraque-Dawley male white mice; test: Serum alanine aminotransferase (ALT) activity; format: in vivo, white mouse; details: 0.62 mmole/kg i.p. twice a week
Experimental: as §1
To collect a specimen, the white mouse was sacrificed 72 hours after final injection. The mouse was put under general anesthesia using diethylether, and its abdomen was cut open at suspine position. 7-10 ml of whole blood was withdrawn with a syringe treated with heparine, and the liver tissue was extracted.
The collected blood sample was left at room temperature for 30 min, centrifuged at 3,000 g for 10 min. The serum was devided into several fractions and stored at −70° C. until used.
Serum alanine aminotransferase(hereinafter, as referred as “ALT”) activity was measured by using the automatic analyzer (Hitach, 747/200 type), which is based on the spectrophotometric quantification of […] loss using lactic dehydrogenase as a […] (Horder and Rej, 1983).

[3] = test system: Spraque Dawley male white mice; test: Death during repeated allylalcohol treatment; format: in vivo, white mouse
Experimental: (§3) Of the forty total Spraque Dawley male white mice(weight 150-200 g), 10 mice were used as a control group and 30 mice were treated with allylalcohol.
(§4) 30 mice with treated allylalcohol were devided into three groups, each containing 10 mice. The 1st group was administered an injection with allylalcohol dissolved in saline solution with 0.3 mmole/kg into a peritoneal cavity twice a week. The 2nd and 3rd groups received 0.62 mmole/kg and 0.93 mmole/kg of allylalcohol, respectively, via the same method.
(§5) The animals were maintained 23° C. and 40% of relative humidity. The intensity of illumination was maintained for 12 hours from 6 A.M. to 6 P.M. They were sacrificed after 8 weeks.
as §1

TGF β1 mRNA = test: Semi-quantitative measurement of TGF β1 mRNA expression in the liver tissue by RT-PCR; format: in vivo, white mouse
Experimental: Total RNA of the mouse liver tissue stored at −70° C. was extracted by one-step method using acid guanidinium thiocyanate-phenol-chloroform (AGPC, 1987) of Chomczynski and Sacchi. […] of the frozen liver tissue was homogenized in 1 ml of denaturing solution (4 M guanidinium thiocyanate, 25 mM sodium citrate, pH 7, 0.5% sarcosyl, 0.1 M 2-mercapto ethanol).
After the addition of 1 ml of phenol and 100 ul of chloroform were added to it, the homogenate was shaken thoroughly for 15 sec, left at 4° C. for 5 min, and centrifuged at 12,000 g and 4° C. for 15 min. The supernatant (aqueous phase) was withdrawn, mixed with equal volume of isopropanol, left at 4° C. for 15 min, and centrifuged as before.
RNA pellet was collected, washed with 75% ethanol twice, and centrifuged at 7,500 g and 4° C. for 8 min to remove ethanol. RNA pellet was dried under vacuum using the Speed Vac concentrator at −70° C. for 15 min. The dried RNA was dissolved in 20 ul of deionized distilled water(DDW) treated with 0.1% di-ethyl-pyro-carbonate (DEPC), and stored at −70° C. RNA concentration was determined by spectrophotometric measurement of absorbance at 260 nm. When the absorption ratio of A260/A280 used as an index of purity, exceeds 1.8, RNA samples were considered pure.
For the synthesis of cDNA of TGF β1 mRNA, 2 ul of total RNA extracted from the mouse liver tissue was mixed with 10 unit of Molony murine leukemia virus reverse transcriptase(M-MuLV RT), 100 ng of oligo-dT15, 1 ul of dNTP (dGTP, dATP, dTTP, dCTP), RNase inhibitor 20 unit, 0.5 ul of 100 mM dithitritol (DTT) and 4 ul of 5×buffer solution, and total volume of the reaction mixture was adjusted to 20 ul by adding 0.1% DEPC-treated DDW.
The reaction mixture was heated at 37° C. for 90 min and 95° C. for 5 min, and rapidly cooled down on ice. 80 ul of DDW was added to this cDNA mixture which was then used as a PCR template.
For amplification of TGF β1 cDNA template, a sense-primer represented by SEQ ID NO.1 and an antisense-primer represented by SEQ ID NO.2 was synthesized. The position and the PCR product size of the primer set were described in Table 7. The concentration of the synthesized primer was adjusted to 10 pmole/ul by dissolving in TE buffer solution and stored at −20° C. until used.
cDNA solution was diluted by two times until the concentration was to be 2^−1, 2^−2, 2^−3, , , , , and 2^−10, and used as PCR templates. 50 ul total of PCR reaction solution contained 4 ul of cDNA template solution, 1 unit of Taq DNA polymerase, each of 1 ul the antisense and the sense primer, 1 ul of dNTP, 5 ul of 10×buffer solution (containing 2.5 mM MgCl2) and 37.7 ul of DDW.
To prevent vaporization of the sample at high temperature, 20 ul of mineral oil was added to the reaction mixture. PCR reaction was performed with PCR automated thermal cycler (Perkin Elmer) by using a hot start method. The hot start method included a denaturation step at 94° C. for 4 min, and the primer annealing and extension step at 65° C. for 15 min (at this step, Taq DNA polymerase was added after 10 min).
The reaction system then underwent 35 cycles of heating 94° C. for 45 sec, 60° C. for 45 sec, and 72° C. for 2 min, and the extension step was completed with 5 min heating at 72° C. In the RNA synthesis, negative control was distilled water, and positive control was 1 ul of TGF β1 cDNA fragment solution provided from a Clontech Laboratory.
The amplified PCR product mixed with 6×DNA loading buffer (0.25% bromophenol blue, 0.25% xylene cylanol, 30% glycol) was analyzed by electrophoresis using 2% agarose gel containing 1 ul ethidium bromide with 1×TBE buffer solution(89 mM tris-borate, 2 mM EDTA). After the electrophoresis at 100 volt for 60 min, UV transilluminator was used to establish the visible band(FIG. 3).

[4] = test system: Spraque-Dawley male white mice; test: Collagen content of liver tissues (dye-binding procedure of Jimenez); format: in vivo, white mouse; details: liver tissue
Experimental: The collagen content of liver tissues was measured by dye-binding procedure of Jimenez. The liver tissue fixed in 10% formalin and embedded in paraffin was sliced by 15 um of thickness and put on a slide glass.
After the paraffin was removed by xylene and alcohol, the sample was stained with the saturated picric acid solution containing 0.01% fast green FCF (Fluka AG, NO 42053, Switzerland), left at room temperature for 15 min, and washed with a phosphate buffer until most color came off. The sample was restained with the saturated picric acid solution containing 0.04% fast green and 0.1% Sirius red F3B (Gurr BDH Chemical Ltd., NO 34149, Poole, England), left at room temperature for 30 min in the darkroom, and washed as before.
The stained tissue sample was transferred into the tube containing 1 ml solution with equal volume of 0.1% sodium hydroxide and methanol, and the tube was slowly shaken until the color dissolved completely. The absorbance of the colored solution was measured with a spectrophotometer. The wavelength for maximum absorbance was 630 nm for fast green, and 540 nm for Sirius red. Since fast green also absorbed a little (7.78%) at 540 nm, these inventors made calculations correcting for the factor.
The amount of collagen per unit protein was obtained with the formula 1 using the color equivalence of 3 OD/mg protein and 37 OD/mg collagen for fast green and Sirius red, respectively. [formula]

[5] = test system: Spraque Dawley male white mice; test: Extent of hepatic fibrosis by histological examination (Batts and Ludwig classification) after repeated allylalcohol injection; format: in vivo, white mouse
Experimental: as §3, §4, §5, §1, §2

periportal liver = details: in vivo; cited from earlier work
mouse = mouse treated with carbon tetrachloride, cited from earlier work
[6] = 0.62 mmole/kg i.p. twice a week, 4 weeks
[7] = 0.62 mmole/kg i.p. twice a week, 8 weeks
[8] = 0.62 mmole/kg i.p. twice a week, 16 weeks
[9] = 2nd group, 0.62 mmole/kg i.p. twice a week, 8 weeks
[10] = liver tissues of the 30 mice of Example 1-2, Masson's trichrome

SMILES: C=CCO [allylalcohol, Allylalcohol]
- number of mice with numerical score 1 [1, 6]: 10
- number of mice with numerical score 8 [1, 7]: 4
- number of mice with numerical score 9 [1, 7]: 1
- number of mice with numerical score 10 [1, 7]: 1
- number of mice with numerical score 11 [1, 7]: 2
- number of mice with numerical score 12 [1, 7]: 1
- number of mice with numerical score 7 [1, 8]: 1
- number of mice with numerical score 8 [1, 8]: 1
- number of mice with numerical score 10 [1, 8]: 1
- number of mice with numerical score 11 [1, 8]: 1
- number of mice with numerical score 12 [1, 8]: 3
- number of mice with numerical score 13 [1, 8]: 2
- number of mice with numerical score 14 [1, 8]: 1
- extent of hepatic fibrosis by the numerical scoring system, all the animals ([1]; 4-week group, 0.62 mmole/kg i.p. twice a week): less than 2
- extent of hepatic fibrosis by the numerical scoring system, all the animals ([1]; 8-week group, 0.62 mmole/kg i.p. twice a week): higher than 7
- extent of hepatic fibrosis by the numerical scoring system, all the animals ([1]; 16-week group, 0.62 mmole/kg i.p. twice a week): higher than 7
- numerical score ([1]; cirrhosis group of the 30 treated mice): 12.4±1.5
- numerical score ([1]; mild group of the 30 treated mice): 2.6±1
- numerical score ([1]; moderate group of the 30 treated mice): 9.0±1.7
- numerical score ([1]; printed 'control group' (first histological class) of the 30 treated mice): 1.0±0
- numerical score ([1]; severe group of the 30 treated mice): 9.8±1.5
- number of tissue samples with score of 1-6 ([1]; treated mice of Example 1-2): 10
- number of tissue samples with score of 7-10 ([1]; treated mice of Example 1-2): 9
- number of tissue samples with score of 11-14 ([1]; treated mice of Example 1-2): 10
- ALT activity ([2]; 4 weeks): 69.6±39.8 U/L
- ALT activity ([2]; 8 weeks): 63.8±9.6 U/L
- ALT activity ([2]; 16 weeks): 75.5±15.9 U/L
- death (number of mice) [3, 6]: 0
- death (number of mice) ([3]; 0.62 mmole/kg i.p. twice a week, 8 weeks (Example 1-2)): 1
- death (number of mice) [3, 8]: 0
- death (number of mice) ([3]; 1st group, 0.3 mmole/kg i.p. twice a week, 8 weeks): 0
- TGF β1 mRNA (TGF β1 mRNA; treated for 4 weeks, Table 9 line printed 'Score 1-6'): 4.7±2.4 unit/total RNA 2 ug
- TGF β1 mRNA (TGF β1 mRNA; treated for 8 weeks, Table 9 line printed 'Score 7-10'): 5.8±1.0 unit/total RNA 2 ug
- TGF β1 mRNA (TGF β1 mRNA; treated for 16 weeks, Table 9 line printed 'Score 11-14'): 5.7±2.3 unit/total RNA 2 ug
- TGF β1 mRNA (TGF β1 mRNA; treated mice with score 1-6): 4.7±2.4 unit/total RNA 2 ug
- TGF β1 mRNA (TGF β1 mRNA; treated mice with score 7-10): 5.8±1.5 unit/total RNA 2 ug
- TGF β1 mRNA (TGF β1 mRNA; treated mice with score 11-14): 5.7±2.0 unit/total RNA 2 ug
- Collagen content ([4]; treated for 4 weeks): 110.2±11.9 ug collagen/mg protein
- Collagen content ([4]; treated for 8 weeks): 132.5±29.3 ug collagen/mg protein
- Collagen content ([4]; treated for 16 weeks): 157.2±94.7 ug collagen/mg protein
- Collagen content ([4]; treated mice with score 1-6): 110.2±11.9 ug collagen/mg protein
- Collagen content ([4]; treated mice with score 7-10): 131.4±30.0 ug collagen/mg protein
- Collagen content ([4]; treated mice with score 11-14): 158.2±94.2 ug collagen/mg protein
- number of mice with cirrhosis [5, 8]: 5
- number of mice with moderate hepatic fibrosis [5, 8]: 2
- number of mice with severe hepatic fibrosis [5, 8]: 3
- number of mice with mild hepatic fibrosis [5, 9]: 1
- number of mice with severe hepatic fibrosis [5, 9]: 5
- number of mice with severe hepatic fibrosis ([5]; 3rd group, 0.93 mmole/kg i.p. twice a week, 8 weeks): 2
- number of samples classified as cirrhosis [5, 10]: 5
- number of samples classified as mild [5, 10]: 7
- number of samples classified as moderate [5, 10]: 5
- number of samples classified as normal [5, 10]: 4
- number of samples classified as severe [5, 10]: 8

SMILES: C=CC=O [Acrolein, acrolein]
- liver toxicity (periportal liver): intense liver toxicity

SMILES: ClC(Cl)(Cl)Cl [carbon tetrachloride]
- induction period (mouse; pretreatment with phenobarbitol): 8-10 weeks
- time to irreversible accumulation of collagen (mouse): ≤ 20 weeks
